According to PubChem BioAssay AID1195 (EPA DSSTox, 2008):

Tested on: human maximum recommended daily dose, FDA database
Test: DSSTox (FDAMDD) FDA Maximum (Recommended) Daily Dose Database
Settings: hits give low values
In short: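 MRDD values come from clinical trials with daily oral dosing, usually for 3–12 months, for the average adult, in mg/day converted to mg/kg-bw/day assuming 60 kg. Antineoplastic mg/m2 doses are divided by 37. Activity score maps log10(1/MRDD mmol) onto 1–100.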

[1] = TherapeuticCategory: antihistaminic
[2] = TherapeuticCategory: antidepressant
[3] = TherapeuticCategory: anticonvulsant
[4] = TherapeuticCategory: antibacterial
[5] = TherapeuticCategory: antiallergic, antiasthmatic
[6] = TherapeuticCategory: anthelmintic
[7] = TherapeuticCategory: antihypertensive
[8] = TherapeuticCategory: antineoplastic
[9] = TherapeuticCategory: diagnostic aid
[10] = TherapeuticCategory: anticholinergic
[11] = TherapeuticCategory: antiulcerative
[12] = TherapeuticCategory: antipsychotic

NS(=O)(=O)c1cc2c(cc1C(F)(F)F)NC(Cc1ccccc1)NS2(=O)=O (centres undefined)
maximum recommended daily dose (mmol/kg-bw/day) (TherapeuticCategory: diuretic, antihypertensive): 0.00079

O=C(Oc1ccccc1C(=O)O)c1ccccc1O
maximum recommended daily dose (mmol/kg-bw/day) (TherapeuticCategory: analgesic, anti inflammatory): 0.258

O=C(O)c1cc(N=Nc2ccc(O)c(C(=O)O)c2)ccc1O
maximum recommended daily dose (mmol/kg-bw/day) (TherapeuticCategory: treatment of ulcerative colitis): 0.0553

CC[N+](C)(C)Cc1ccccc1Br
maximum recommended daily dose (mmol/kg-bw/day) (TherapeuticCategory: antiadrenergic, cardiac depressant): 0.0121

NCCS
maximum recommended daily dose (mmol/kg-bw/day) (TherapeuticCategory: antidote to acetaminophen): 0.432

CN1CCC(=C2c3ccccc3CCc3cccnc32)CC1
maximum recommended daily dose (mmol/kg-bw/day) [1]: 0.000115

N[C@@H]1C[C@H]1c1ccccc1
maximum recommended daily dose (mmol/kg-bw/day) [2]: 0.00751

CN(C)C(=O)Oc1cccc([N+](C)(C)C)c1
maximum recommended daily dose (mmol/kg-bw/day) (TherapeuticCategory: cholinergic): 0.028

CC(C)(Oc1ccc(Cl)cc1)C(=O)NC(=O)NCN1CCOCC1
maximum recommended daily dose (mmol/kg-bw/day) (TherapeuticCategory: antithrombotic): 0.112

NCC(CC(=O)O)c1ccc(Cl)cc1 (centres undefined)
maximum recommended daily dose (mmol/kg-bw/day) (TherapeuticCategory: skeletal muscle relaxant): 0.00622

NC(=O)c1ccccc1O
maximum recommended daily dose (mmol/kg-bw/day) (TherapeuticCategory: analgesic): 0.316

CCC1(c2ccccc2)C(=O)NCNC1=O
maximum recommended daily dose (mmol/kg-bw/day) [3]: 0.0382

CCN(CC)CCCN(c1ccccc1)C1Cc2ccccc2C1
maximum recommended daily dose (mmol/kg-bw/day) (TherapeuticCategory: antiarrhythmic): 0.0155

CC1(C)S[C@@H]2[C@H](NC(=O)[C@H](NC(=O)N3CCN(S(C)(=O)=O)C3=O)c3ccccc3)C(=O)N2[C@H]1C(=O)O
maximum recommended daily dose (mmol/kg-bw/day) [4]: 0.495

CC(C)c1ccc2oc3nc(N)c(C(=O)O)cc3c(=O)c2c1
maximum recommended daily dose (mmol/kg-bw/day) [5]: 0.00838

COc1ccc2c3c1O[C@H]1C(=O)CC[C@H]4[C@@H](C2)N(C)CC[C@]314
maximum recommended daily dose (mmol/kg-bw/day) (TherapeuticCategory: analgesic): 0.00251

CCO[C@@H]1O[C@H](C(COCc2ccccc2)OCc2ccccc2)[C@H](OCc2ccccc2)[C@H]1O (some centres undefined)
maximum recommended daily dose (mmol/kg-bw/day) (TherapeuticCategory: sclerosing agent): 0.0278

CCCCCCC(=O)O[C@H]1CC[C@H]2[C@@H]3CCc4cc(O)ccc4[C@H]3CC[C@]12C
maximum recommended daily dose (mmol/kg-bw/day) (TherapeuticCategory: estrogen): 0.0013

CC[C@H](CC[C@@H](C)[C@H]1CC[C@H]2[C@@H]3CC=C4C[C@@H](O)CC[C@]4(C)[C@H]3CC[C@]12C)C(C)C
maximum recommended daily dose (mmol/kg-bw/day) (TherapeuticCategory: anticholinesteremic): 0.241

c1ccc([C@H]2CN3CCSC3=N2)cc1
maximum recommended daily dose (mmol/kg-bw/day) [6]: 0.00408

COc1cccc(C(=O)CCN[C@@H](C)[C@H](O)c2ccccc2)c1
maximum recommended daily dose (mmol/kg-bw/day) (TherapeuticCategory: antianginal): 0.00255

CCOC(=O)c1c(N)sc2c1CCN(Cc1ccccc1)C2
maximum recommended daily dose (mmol/kg-bw/day) (TherapeuticCategory: analgesic, antipyretic, anti inflammatory): 0.0158

CC(=O)CCCCn1c(=O)c2c(ncn2C)n(C)c1=O
maximum recommended daily dose (mmol/kg-bw/day) (TherapeuticCategory: vasodilator): 0.0719

CN(C)CC[C@@H](c1ccc(Br)cc1)c1ccccn1
maximum recommended daily dose (mmol/kg-bw/day) [1]: 0.00251

OC1OC[C@@H](O)[C@H](O)[C@H]1O (some centres undefined)
maximum recommended daily dose (mmol/kg-bw/day) (TherapeuticCategory: intestinal function diagnostic aid): 2.78

O=C(O)COCCN1CCN(C(c2ccccc2)c2ccc(Cl)cc2)CC1 (centres undefined)
maximum recommended daily dose (mmol/kg-bw/day) [1]: 0.0432

CCCc1nc2c(C)cc(-c3nc4ccccc4n3C)cc2n1Cc1ccc(-c2ccccc2C(=O)O)cc1
maximum recommended daily dose (mmol/kg-bw/day) [7]: 0.00258

C[C@H](CCC(=O)O)[C@H]1CC[C@H]2[C@@H]3C(=O)C[C@@H]4CC(=O)CC[C@]4(C)[C@H]3CC(=O)[C@]12C
maximum recommended daily dose (mmol/kg-bw/day) (TherapeuticCategory: choleretic): 0.0932

CNC(C)CCC=C(C)C (centres undefined)
maximum recommended daily dose (mmol/kg-bw/day) (TherapeuticCategory: adrenergic, bronchodilator, mydriatic, antiglaucoma): 0.0384

NNc1nnc(NN)c2ccccc12
maximum recommended daily dose (mmol/kg-bw/day) [7]: 0.0175

CN(CCOc1ccc(CC2SC(=O)NC2=O)cc1)c1ccccn1 (centres undefined)
maximum recommended daily dose (mmol/kg-bw/day) (TherapeuticCategory: antidiabetic): 0.000281

C#CCN(C)[C@H](C)Cc1ccccc1
maximum recommended daily dose (mmol/kg-bw/day) (TherapeuticCategory: antiparkinsonian): 0.000892

Cc1cc2cc3c(C)cc(=O)oc3c(C)c2o1
maximum recommended daily dose (mmol/kg-bw/day) (TherapeuticCategory: pigmentation agent): 0.000732

C[C@@H]1CN(c2c(F)c(N)c3c(=O)c(C(=O)O)cn(C4CC4)c3c2F)C[C@H](C)N1
maximum recommended daily dose (mmol/kg-bw/day) [4]: 0.017

Oc1ccc(Cl)cc1Cc1cc(Cl)ccc1O
maximum recommended daily dose (mmol/kg-bw/day) [6]: 0.372

CC1CCC(C(C)C)C(O)C1 (centres undefined)
maximum recommended daily dose (mmol/kg-bw/day) (TherapeuticCategory: topical antipruritic): 0.0128

OC[C@H]1O[C@@H](O[C@H]2[C@H](O)[C@@H](O)[C@H](O)O[C@@H]2CO)[C@H](O)[C@@H](O)[C@H]1O
maximum recommended daily dose (mmol/kg-bw/day) (TherapeuticCategory: none): 0.292

CN(C)/N=N/c1nc[nH]c1C(N)=O
maximum recommended daily dose (mmol/kg-bw/day) [8]: 0.0247

CC(NC(C)(C)C)C(=O)c1cccc(Cl)c1 (centres undefined)
maximum recommended daily dose (mmol/kg-bw/day) [2]: 0.0313

CCCCNC(=O)OCC(C)(CCC)COC(N)=O (centres undefined)
maximum recommended daily dose (mmol/kg-bw/day) (TherapeuticCategory: anxiolytic): 0.182

Cc1noc(NS(=O)(=O)c2ccc(N)cc2)c1C
maximum recommended daily dose (mmol/kg-bw/day) [4]: 0.25

CNCCCN1c2ccccc2CCc2ccccc21
maximum recommended daily dose (mmol/kg-bw/day) [2]: 0.0188

CN[C@H]1[C@@H](O)[C@H](O[C@H]2O[C@H]([C@H](C)N)CC[C@H]2N)[C@@H](N)[C@H](O)[C@@H]1OC
maximum recommended daily dose (mmol/kg-bw/day) [4]: 0.0191

CCOC(=O)CCCCCCCCC(C)c1cccc(I)c1 (centres undefined)
maximum recommended daily dose (mmol/kg-bw/day) [9]: 0.3

OC(CCN1CCCC1)(c1ccccc1)C1CCCCC1 (centres undefined)
maximum recommended daily dose (mmol/kg-bw/day) [10]: 0.00116

N=C(N)c1ccc(OCCCCCOc2ccc(C(=N)N)cc2)cc1
maximum recommended daily dose (mmol/kg-bw/day) (TherapeuticCategory: antiprotozoal): 0.0118

C=CCC1(C(C)CCC)C(=O)N=C(O)NC1=O (centres undefined)
maximum recommended daily dose (mmol/kg-bw/day) (TherapeuticCategory: sedative, hypnotic): 0.0128

CN[C@@H](C)[C@@H](O)c1ccccc1
maximum recommended daily dose (mmol/kg-bw/day) (TherapeuticCategory: l-form as bronchodilator, d-form as decongestant): 0.0242

C[C@@H]1O[C@@]2(CS1)CN1CCC2CC1
maximum recommended daily dose (mmol/kg-bw/day) (TherapeuticCategory: selective agonist (tear and salivary production)): 0.00613

CN(CCCN1c2ccccc2CCc2ccccc21)CC(=O)c1ccc(Cl)cc1
maximum recommended daily dose (mmol/kg-bw/day) [2]: 0.00835

CC1=C(C(=O)O)N2C(=O)[C@@H](NC(=O)[C@H](N)C3=CCC=CC3)[C@H]2SC1
maximum recommended daily dose (mmol/kg-bw/day) [4]: 0.191

CC[N+](CC)(CC)CCC(O)(c1ccccc1)C1CCCCC1 (centres undefined)
maximum recommended daily dose (mmol/kg-bw/day) [10]: 0.00941

NC(=O)NNc1ccccc1
maximum recommended daily dose (mmol/kg-bw/day) (TherapeuticCategory: antipyretic): 0.165

CC(=O)OCC(=O)[C@@]1(OC(=O)c2ccco2)[C@H](C)C[C@H]2[C@@H]3CCC4=CC(=O)C=C[C@]4(C)[C@@]3(F)[C@@H](O)C[C@@]21C
maximum recommended daily dose (mmol/kg-bw/day) (TherapeuticCategory: glucocorticoid, anti inflammatory): 0.000284

CN(CCO)CC(O)Cn1cnc2c1c(=O)n(C)c(=O)n2C (centres undefined) (tested in a mixture with another compound)
maximum recommended daily dose (mmol/kg-bw/day) (TherapeuticCategory: peripheral vasodilator): 0.0575

CC1(C)S[C@@H]2[C@H](N=CN3CCCCCC3)C(=O)N2[C@H]1C(=O)O
maximum recommended daily dose (mmol/kg-bw/day) [4]: 0.0461

CCCc1c2oc(C(=O)O)cc(=O)c2cc2c(=O)cc(C(=O)O)n(CC)c12
maximum recommended daily dose (mmol/kg-bw/day) [5]: 0.000627

CCC1(C)OC(=O)N(C)C1=O (centres undefined)
maximum recommended daily dose (mmol/kg-bw/day) [3]: 0.255

CN/C(=C\[N+](=O)[O-])NCCSCc1csc(CN(C)C)n1
maximum recommended daily dose (mmol/kg-bw/day) [11]: 0.0151

CCc1nn(CCCN2CCN(c3cccc(Cl)c3)CC2)c(=O)n1CCOc1ccccc1
maximum recommended daily dose (mmol/kg-bw/day) (TherapeuticCategory: antidepressant, seratonin receptor antagonist): 0.0213

CC(=O)Nc1c(I)c(C(=O)O)c(I)c(N(C)C(C)=O)c1I
maximum recommended daily dose (mmol/kg-bw/day) [9]: 0.159

CN1CCCCC1CCN1c2ccccc2Sc2ccc(S(C)=O)cc21 (centres undefined)
maximum recommended daily dose (mmol/kg-bw/day) [12]: 0.0129

Oc1ccc2c(c1)[C@@]13CCCC[C@@]1(O)[C@@H](C2)N(CC1CCC1)CC3
maximum recommended daily dose (mmol/kg-bw/day) (TherapeuticCategory: narcotic analgesic): 0.000815

CC1(C)S[C@@H]2[C@H](N3C(=O)C(c4ccccc4)NC3(C)C)C(=O)N2[C@H]1C(=O)O (some centres undefined)
maximum recommended daily dose (mmol/kg-bw/day) [4]: 0.0855

O=C(CCCN1CCC(n2c(=S)[nH]c3ccccc32)CC1)c1ccc(F)cc1
maximum recommended daily dose (mmol/kg-bw/day) [12]: 0.000503

C[C@H]1CC2=CC(=O)CC[C@]2(C)[C@H]2CC[C@@]3(C)[C@@H](CC[C@]3(C)O)[C@H]12
maximum recommended daily dose (mmol/kg-bw/day) [8]: 0.0158

NC(N)=Nc1nc(CSCC/C(N)=N/S(N)(=O)=O)cs1
maximum recommended daily dose (mmol/kg-bw/day) [11]: 0.00198

CCOC(=O)[C@H](CCc1ccccc1)N[C@H]1CCc2ccccc2N(CC(=O)O)C1=O
maximum recommended daily dose (mmol/kg-bw/day) (TherapeuticCategory: antihypertensive, ACE inhibitor): 0.00313

CN1CCN(CCCN2c3ccccc3Sc3ccc(Cl)cc32)CC1
maximum recommended daily dose (mmol/kg-bw/day) (TherapeuticCategory: antiemetic): 0.00447
